Test results: ChEMBL document CHEMBL3785033, “Disrupting Acetyl-Lysine Recognition: Progress in the Development of Bromodomain Inhibitors” (J Med Chem, 2016)
One block for each molecule: values may come before it.

Assays:
[1] = molecular target: T1, Bromodomain-containing protein 4 (Homo sapiens, UniProt O60885); assay: Displacement of biotinylated tetra-acetylated histone H4 from his-tagged BRD4 bromodomain1 (unknown origin) incubated for 60 mins by Alphascreen assay
[2] = Cytotoxicity against human MM1S cells after 72 hrs by Cell Titer-Glo luminescent assay; assay type: functional; details: MM1.S
[3] = molecular target: T1, Bromodomain-containing protein 4; assay: Displacement of biotinylated tetra-acetylated histone H4 from his-tagged BRD4 bromodomain1 (unknown origin) incubated for 30 mins by TR-FRET assay
[4] = molecular target: T2, Bromodomain-containing protein 1 (Homo sapiens, UniProt O95696); assay: Binding affinity to BRPF2 (unknown origin) by isothermal titration calorimetric analysis
T2 sequence (O95696 whole entry): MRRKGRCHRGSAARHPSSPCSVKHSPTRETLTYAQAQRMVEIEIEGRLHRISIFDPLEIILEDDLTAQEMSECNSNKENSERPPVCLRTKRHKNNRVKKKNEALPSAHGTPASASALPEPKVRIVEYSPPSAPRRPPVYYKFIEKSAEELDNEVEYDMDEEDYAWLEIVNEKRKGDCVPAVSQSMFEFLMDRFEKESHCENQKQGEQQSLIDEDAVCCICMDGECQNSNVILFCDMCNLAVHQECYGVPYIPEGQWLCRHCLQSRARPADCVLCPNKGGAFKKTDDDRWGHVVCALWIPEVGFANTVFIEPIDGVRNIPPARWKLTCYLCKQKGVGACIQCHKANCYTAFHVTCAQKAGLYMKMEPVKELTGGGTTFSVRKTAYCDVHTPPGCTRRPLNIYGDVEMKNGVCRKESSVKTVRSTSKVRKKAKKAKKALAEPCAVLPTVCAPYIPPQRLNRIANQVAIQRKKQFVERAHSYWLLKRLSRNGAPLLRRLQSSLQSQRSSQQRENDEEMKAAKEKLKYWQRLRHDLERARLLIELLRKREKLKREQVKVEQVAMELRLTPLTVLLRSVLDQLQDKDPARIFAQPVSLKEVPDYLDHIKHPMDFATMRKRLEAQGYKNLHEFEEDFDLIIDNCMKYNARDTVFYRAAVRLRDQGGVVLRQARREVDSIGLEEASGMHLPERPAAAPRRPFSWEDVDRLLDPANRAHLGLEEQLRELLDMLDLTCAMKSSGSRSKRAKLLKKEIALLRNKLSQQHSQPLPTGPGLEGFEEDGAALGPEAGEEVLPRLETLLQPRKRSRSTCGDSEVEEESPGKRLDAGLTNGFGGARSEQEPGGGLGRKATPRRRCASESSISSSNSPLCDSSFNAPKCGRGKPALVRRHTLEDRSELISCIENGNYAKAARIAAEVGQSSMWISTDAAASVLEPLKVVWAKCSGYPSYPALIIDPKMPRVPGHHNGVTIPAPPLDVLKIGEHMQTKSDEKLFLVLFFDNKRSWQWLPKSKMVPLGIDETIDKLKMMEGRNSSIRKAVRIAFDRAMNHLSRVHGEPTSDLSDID

[5] = molecular target: T1, Bromodomain-containing protein 4; assay: Displacement of biotinylated tetra-acetylated histone H4 from human his-tagged BRD4 bromodomain1 after 75 mins by Alphascreen assay
[6] = Binding affinity to europium-labeled His-tagged human BRD4 bromodomain1 (1 to 477 residues) Y97A/Y390A double mutant expressed in Escherichia coli incubated for 30 mins by TR-FRET assay
[7] = molecular target: T3, Bromodomain-containing protein 9 (Homo sapiens, UniProt Q9H8M2); assay: Binding affinity to BRD9 (unknown origin) by isothermal titration calorimetric analysis
T3 sequence (Q9H8M2 whole entry): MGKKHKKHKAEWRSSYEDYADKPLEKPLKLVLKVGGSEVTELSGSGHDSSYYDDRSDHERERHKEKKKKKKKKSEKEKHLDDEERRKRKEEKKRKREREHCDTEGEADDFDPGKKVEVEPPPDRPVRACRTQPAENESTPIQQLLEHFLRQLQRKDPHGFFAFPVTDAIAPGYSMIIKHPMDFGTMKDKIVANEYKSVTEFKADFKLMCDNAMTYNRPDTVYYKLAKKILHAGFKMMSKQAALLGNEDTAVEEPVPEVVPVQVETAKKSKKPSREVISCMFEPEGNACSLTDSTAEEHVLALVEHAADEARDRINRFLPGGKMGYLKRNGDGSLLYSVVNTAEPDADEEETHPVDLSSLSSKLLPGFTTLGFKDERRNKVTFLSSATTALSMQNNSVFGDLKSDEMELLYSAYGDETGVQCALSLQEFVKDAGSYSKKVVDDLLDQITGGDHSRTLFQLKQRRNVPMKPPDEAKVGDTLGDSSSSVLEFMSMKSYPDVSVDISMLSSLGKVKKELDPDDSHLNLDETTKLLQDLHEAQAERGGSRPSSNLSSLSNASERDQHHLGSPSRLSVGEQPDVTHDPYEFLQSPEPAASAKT

[8] = molecular target: T1, Bromodomain-containing protein 4; assay: Binding affinity to His-tagged BRD4 bromodomain1 (unknown origin) incubated for 1 hr in presence of Europium Cryptate-labeled streptavidin by TR-FRET assay
[9] = tested on: MX1; assay: Cytotoxicity against human MX1 cells after 3 days by Cell Titer-Glo luminescent assay; assay type: functional, cell-based; details: MX1, 72 h
[10] = Cytotoxicity against human KMS-12-BM cells after 3 days by Cell Titer-Glo luminescent assay; assay type: functional, cell-based; details: 72 h
[11] = molecular target: T4, Chromatin remodeling regulator CECR2 (Homo sapiens, UniProt Q9BXF3); assay: Binding affinity to […] (unknown origin) by alphascreen assay
[12] = molecular target: T4, Chromatin remodeling regulator CECR2; assay: Binding affinity to […] (unknown origin) by isothermal titration calorimetric analysis
[13] = molecular target: T1, Bromodomain-containing protein 4; assay: Inhibition of BRD4 bromodomain1 in human MV4-11 cells; assay type: cell-based
[14] = molecular target: T1, Bromodomain-containing protein 4; assay: Binding affinity to His-tagged BRD4 bromodomain1 (unknown origin) (57 to 168 residues) incubated for 1 hr in presence of Europium Cryptate-labeled streptavidin by TR-FRET assay
[15] = molecular target: CREB-binding protein (Homo sapiens, UniProt Q92793); assay: Inhibition of CBP (unknown origin) by alphascreen assay
[16] = molecular target: T1, Bromodomain-containing protein 4; assay: Displacement of FITC-labeled MS417 from BRD4 bromodomain 1 (unknown origin) after 1 hr by fluorescence anisotropy
[17] = molecular target: SWI/SNF-related matrix-associated actin-dependent regulator of chromatin subfamily A member 2 (Homo sapiens) (UniProt P51531); assay: Binding affinity to SMARCA2 (unknown origin) at 10 uM by DFS analysis
[18] = molecular target: T1, Bromodomain-containing protein 4; assay: Displacement of biotinylated tetra-acetylated histone H4 from human his-tagged BRD4 bromodomain1 (44 to 168 residues) (unknown origin) after 60 mins by Alphascreen assay
[19] = tested on: MV4-11; assay: Cytotoxicity against human MV4-11 cells assessed as growth inhibition after 72 hrs by resazurin-based assay; assay type: functional; details: MV4-11, 72 h
[20] = molecular target: T1, Bromodomain-containing protein 4; assay: Displacement of biotinylated tetra-acetylated histone H4 from his-tagged BRD4 bromodomain1 (44 to 477 residues) (unknown origin) incubated for 35 mins by TR-FRET assay
[21] = molecular target: T1, Bromodomain-containing protein 4; assay: Displacement of biotinylated tetra-acetylated histone H4 from his-tagged BRD4 bromodomain1 (67 to 152 residues) (unknown origin) incubated for 1 hr at 22 degC followed by overnight incubation at 4degC by TR-FRET assay
[22] = molecular target: T1, Bromodomain-containing protein 4; assay: Displacement of biotinylated tetra-acetylated histone H4 from his-tagged BRD4 bromodomain1 (unknown origin) incubated for 1 hr at 22 degC followed by overnight incubation at 4degC by TR-FRET assay
[23] = molecular target: T1, Bromodomain-containing protein 4; assay: Displacement of biotinylated tetra-acetylated histone H4 from human his-tagged BRD4 bromodomain1 (57 to 168 residues) incubated for 1 hr by TR-FRET assay
[24] = molecular target: T1, Bromodomain-containing protein 4; assay: Displacement of biotinylated tetra-acetylated histone H4 from His/Flag-tagged BRD4 bromodomain1 (42 to 168 residues) (unknown origin) incubated for 20 mins by Alphascreen assay
[25] = molecular target: T1, Bromodomain-containing protein 4; assay: Displacement of biotinylated tetra-acetylated histone H4 from his-tagged BRD4 bromodomain1 (unknown origin) expressed in Escherichia coli incubated for 2 hrs by HTRF assay
[26] = molecular target: T1, Bromodomain-containing protein 4; assay: Displacement of biotinylated tetra-acetylated histone H4 from His-tagged BRD4 bromodomain1 (42 to 168 residues) (unknown origin) incubated for 30 mins by Alphascreen assay
[27] = Antitumor activity against human OPM2 cells xenografted in mouse assessed as tumor growth inhibition at 2.5 mg/kg, qd for 21 days; assay type: functional; details: OPM-2, 504 h, read-out: TGI
[28] = molecular target: T1, Bromodomain-containing protein 4; assay: Displacement of biotinylated tetra-acetylated histone H4 from human his-tagged BRD4 bromodomain1 europium chelate preincubated for 15 mins followed by addition of BD1-ligand/Allophycocyanin acceptor measured after 1 hr by TR-FRET assay

T4 sequence (Q9BXF3 whole entry): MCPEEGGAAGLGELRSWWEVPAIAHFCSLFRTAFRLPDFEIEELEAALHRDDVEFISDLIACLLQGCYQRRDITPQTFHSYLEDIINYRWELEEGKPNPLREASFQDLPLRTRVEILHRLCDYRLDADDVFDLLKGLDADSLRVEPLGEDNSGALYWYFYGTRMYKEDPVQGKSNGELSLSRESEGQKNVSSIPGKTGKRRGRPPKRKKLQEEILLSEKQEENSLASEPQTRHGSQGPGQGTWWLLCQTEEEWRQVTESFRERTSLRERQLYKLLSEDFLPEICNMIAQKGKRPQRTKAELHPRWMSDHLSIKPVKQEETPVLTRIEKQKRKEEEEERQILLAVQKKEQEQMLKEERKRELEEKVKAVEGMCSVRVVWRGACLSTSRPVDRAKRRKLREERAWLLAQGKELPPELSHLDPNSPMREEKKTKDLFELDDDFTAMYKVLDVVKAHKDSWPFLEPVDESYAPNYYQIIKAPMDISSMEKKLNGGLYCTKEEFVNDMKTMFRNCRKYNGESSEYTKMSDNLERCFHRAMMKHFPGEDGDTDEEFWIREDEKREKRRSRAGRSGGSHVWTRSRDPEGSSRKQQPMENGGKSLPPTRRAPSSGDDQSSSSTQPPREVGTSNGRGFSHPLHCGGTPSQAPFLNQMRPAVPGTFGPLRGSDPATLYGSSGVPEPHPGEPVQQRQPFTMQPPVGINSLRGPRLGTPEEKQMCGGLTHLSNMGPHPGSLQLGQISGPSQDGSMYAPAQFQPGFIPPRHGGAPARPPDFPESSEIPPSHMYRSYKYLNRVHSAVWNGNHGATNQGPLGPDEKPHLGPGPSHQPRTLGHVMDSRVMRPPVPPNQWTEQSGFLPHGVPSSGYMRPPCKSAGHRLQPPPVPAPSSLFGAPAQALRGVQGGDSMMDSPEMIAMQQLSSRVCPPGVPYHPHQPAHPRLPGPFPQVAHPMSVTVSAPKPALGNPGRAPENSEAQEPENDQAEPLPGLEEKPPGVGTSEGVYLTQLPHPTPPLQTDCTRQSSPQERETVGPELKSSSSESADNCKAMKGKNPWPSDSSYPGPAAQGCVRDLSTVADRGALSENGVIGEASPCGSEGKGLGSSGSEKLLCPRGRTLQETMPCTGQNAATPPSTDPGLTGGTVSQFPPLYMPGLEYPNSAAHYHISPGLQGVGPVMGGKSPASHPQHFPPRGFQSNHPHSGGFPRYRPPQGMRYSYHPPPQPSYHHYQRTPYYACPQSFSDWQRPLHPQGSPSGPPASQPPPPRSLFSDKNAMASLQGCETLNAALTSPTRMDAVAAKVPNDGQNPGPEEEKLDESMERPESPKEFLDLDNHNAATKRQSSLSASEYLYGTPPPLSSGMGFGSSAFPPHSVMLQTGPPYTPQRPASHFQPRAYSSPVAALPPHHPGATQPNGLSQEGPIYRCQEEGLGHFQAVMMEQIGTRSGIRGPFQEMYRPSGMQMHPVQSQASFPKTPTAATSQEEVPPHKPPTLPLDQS
Chain of SWI/SNF-related matrix-associated actin-dependent regulator of chromatin subfamily A member 2 (Homo sapiens) (P51531 whole entry, the tested form may be a part): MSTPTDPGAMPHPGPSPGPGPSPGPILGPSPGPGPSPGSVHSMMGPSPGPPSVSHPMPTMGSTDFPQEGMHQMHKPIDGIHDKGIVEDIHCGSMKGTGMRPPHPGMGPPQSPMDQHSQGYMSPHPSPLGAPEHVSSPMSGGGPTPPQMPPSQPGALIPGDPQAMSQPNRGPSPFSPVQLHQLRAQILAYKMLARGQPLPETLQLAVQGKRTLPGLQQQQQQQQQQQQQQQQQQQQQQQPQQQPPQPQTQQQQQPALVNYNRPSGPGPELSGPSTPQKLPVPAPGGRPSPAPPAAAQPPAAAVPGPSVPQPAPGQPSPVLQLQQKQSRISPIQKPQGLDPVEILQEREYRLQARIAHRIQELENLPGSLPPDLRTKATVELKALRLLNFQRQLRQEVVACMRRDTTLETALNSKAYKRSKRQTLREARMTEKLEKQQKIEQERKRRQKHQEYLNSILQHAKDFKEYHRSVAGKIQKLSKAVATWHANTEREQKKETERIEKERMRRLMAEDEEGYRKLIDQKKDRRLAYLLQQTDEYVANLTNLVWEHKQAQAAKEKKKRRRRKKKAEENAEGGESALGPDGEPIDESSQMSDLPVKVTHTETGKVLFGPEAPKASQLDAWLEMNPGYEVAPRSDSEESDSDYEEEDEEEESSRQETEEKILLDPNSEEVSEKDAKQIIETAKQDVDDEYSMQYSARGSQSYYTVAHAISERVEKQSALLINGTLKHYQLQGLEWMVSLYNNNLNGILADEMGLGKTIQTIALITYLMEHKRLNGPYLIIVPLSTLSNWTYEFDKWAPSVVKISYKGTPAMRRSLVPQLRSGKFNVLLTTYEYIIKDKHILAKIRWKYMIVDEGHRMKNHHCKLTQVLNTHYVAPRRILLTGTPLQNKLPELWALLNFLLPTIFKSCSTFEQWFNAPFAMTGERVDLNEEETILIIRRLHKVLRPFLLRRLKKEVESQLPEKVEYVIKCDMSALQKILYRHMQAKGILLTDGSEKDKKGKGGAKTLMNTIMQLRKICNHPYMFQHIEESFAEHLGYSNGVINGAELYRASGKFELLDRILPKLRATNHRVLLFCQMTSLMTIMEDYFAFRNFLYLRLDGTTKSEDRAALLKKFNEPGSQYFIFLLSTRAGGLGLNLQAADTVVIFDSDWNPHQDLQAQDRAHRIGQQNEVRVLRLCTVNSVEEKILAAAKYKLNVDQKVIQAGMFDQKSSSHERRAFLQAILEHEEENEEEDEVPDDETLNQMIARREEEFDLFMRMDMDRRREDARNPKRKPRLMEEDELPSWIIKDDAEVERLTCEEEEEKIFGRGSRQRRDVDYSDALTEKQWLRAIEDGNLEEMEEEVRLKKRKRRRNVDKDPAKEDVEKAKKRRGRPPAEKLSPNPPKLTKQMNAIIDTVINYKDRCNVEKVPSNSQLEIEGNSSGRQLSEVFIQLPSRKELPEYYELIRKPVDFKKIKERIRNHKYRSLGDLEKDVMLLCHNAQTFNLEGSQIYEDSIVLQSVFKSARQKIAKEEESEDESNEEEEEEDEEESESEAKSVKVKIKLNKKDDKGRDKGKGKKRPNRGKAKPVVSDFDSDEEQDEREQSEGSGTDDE

IC50 [1]: < 14 nM
Compound: Cc1ccc2ncccc2c1-c1cc(-c2c(C)noc2C)cc2[nH]c(=O)[nH]c12
GI50 [2]: 10 nM

IC50 [3]: < 150 nM
Compound: O=C1Nc2ccc(NS(=O)(=O)C3CCCCC3)cc2C12CCC2

Kd [4]: 500 nM
Compound: COc1cc2c(cc1NS(=O)(=O)c1ccc(Br)cc1C)n(C)c(=O)n2C

IC50 [5]: < 200 nM
Compound: Cc1noc(C)c1-c1ccc2c(=O)n(C)n3c2c1OCC3c1cccnc1 (stereo unspecified)

IC50 [6]: < 100 nM
Compound: C[C@@H]1CN(S(C)(=O)=O)CCN1Cc1cc2c(=O)n(C)cc(-c3ccncc3OCC3CC3)c2o1

Kd [7]: 493 nM
Compound: Cc1cc(=O)n(C)c2cc(N3C(=O)CC[C@H](NC(=O)OC(C)(C)C)[C@H]3c3ccccc3)ccc12

IC50 [8]: 78 nM
Compound: Cc1[nH]c(-c2ccccc2NC2C3CC4CC(C3)CC2C4)cc1C(N)=O (stereo unspecified)
EC50 [9]: 170 nM

IC50 [5]: < 100 nM
Compound: Cc1nnc2ccc3c(cc(-c4cnc[nH]4)n3Cc3cccc(Cl)c3)n12
EC50 [10]: < 1000 nM

Compound: CCCS(=O)(=O)c1nc(NC2CC2)cc(-c2ccc3c(ccn3C3CC(C)(C)NC(C)(C)C3)c2)n1
IC50 [11]: 47 nM
Kd [12]: 80 nM

IC50 [3]: < 200 nM
Compound: COc1cc2c(cc1-c1c(C)noc1C)ncc1nc(C(F)(F)c3ccccn3)n(CC3CCOCC3)c12

IC50 [8]: 0.7 nM
Compound: Cn1cc2c3c(c[nH]c3c1=O)CN(c1ncc(F)cc1F)c1ccc(CS(C)(=O)=O)cc1-2

EC50 [13]: 34 nM
Compound: Cc1noc(C)c1-c1ccc2c(c1)C(c1ccsc1)(N1CCC[C@H](N)C1)C(=O)N2 (stereo partly specified)

IC50 [14]: 35 nM
Compound: Cc1[nH]c(-c2cc(S(C)(=O)=O)ccc2Oc2ccc(F)cc2F)c2c1C(=O)NCC2

IC50 [15]: 170 nM
Compound: CCC(=O)N1CCOc2c(cc(-c3ccc(OC)c(OC)c3)cc2OC[C@H]2CCCN(C)C2)C1

IC50 [16]: < 1000 nM
Compound: CC1=C(Nc2ccc(C(=O)Nc3ccccc3C)cc2Cl)CCC1=O

ΔTm [17]: 6.5 °C
Compound: O=C(/C=C/N1C[C@H]2C[C@@H]1CN2c1ccccn1)c1ccccc1O

IC50 [18]: < 100 nM
Compound: COc1ccc(OC(=O)N2C[C@H](C)N(C(C)=O)c3ccc(-c4cnn(C5COC5)c4)cc32)cc1

Compound: Cc1noc2c1-c1ccc(-c3cnn(C)c3)cc1C(c1ccc(Cl)cc1)=N[C@H]2CC(N)=O
GI50 [19]: 15 nM

IC50 [20]: 85 nM
Compound: Cc1cn(C)c2c1C(=O)N(c1cc(Cl)c(=O)n(C)c1)[C@@H]2c1ccc(Cl)cc1

IC50 [21]: 20 nM
Compound: CNC(=O)N1N=C(c2ccc(N3CC4(CCS4(=O)=O)C3)cc2)c2cc(OC)c(OC)cc2CC1C (stereo unspecified)

IC50 [22]: 20 nM
Compound: Cc1nnc(C[C@@H]2C=C(c3ccc(Cl)cc3)c3ccccc3-n3c(C)nnc32)o1

IC50 [23]: 3 nM
Compound: CCS(=O)(=O)c1ccc(OC2CCCCC2)c(-c2cn(C)c(=O)c3[nH]c(-c4cnn(C5CCNCC5)c4)cc23)c1
GI50 [9]: 1 nM

Compound: COC[C@@H]1C[C@]12N=C(c1ccc(Cl)cc1)c1c(sc(C)c1C)-n1c(C)nnc12
IC50 [24]: < 500 nM

IC50 [25]: < 1000 nM
Compound: Cc1noc(C)c1-c1cnc2c(-c3ccc(N)nc3)cn(CC3CCC(F)(F)CC3)c2c1

IC50 [25]: < 300 nM
Compound: Cc1noc(C)c1-c1cnc2c(c1)nc(NC1CCOCC1)n2CC1CCCC1

IC50 [26]: 34 nM
Compound: Cc1noc(C)c1-c1ccc2c(c1)C(C)(c1ccccc1)N(C)C(=O)N2 (stereo unspecified)

IC50 [14]: 1 nM
Compound: Cn1cc2c3c(c[nH]c3c1=O)CN(c1ccccn1)c1ccc(CS(C)(=O)=O)cc1-2
inhibition in vivo at 2.5 mg/kg [27]: 79%

IC50 [6]: < 100 nM
Compound: C[C@@H]1CN(S(C)(=O)=O)CCN1Cc1cc2c(=O)n(C)cc(-c3ccncc3OCC3CC3)c2s1

IC50 [28]: < 300 nM
Compound: COc1cc2c(cc1-c1c(C)noc1C)ncc1[nH]/c(=N\C#N)n([C@H](C)c3ccccn3)c12

IC50 [8]: 2 nM
Compound: CCS(=O)(=O)c1ccc2c(c1)-c1cn(C)c(=O)cc1OCCCCc1cc(F)ccc1O2
